Biological target: CXCR3 (Macaca fascicularis, UniProt A0A2K5UV19)
Test: functional cellular assay measuring calcium flux in CXCR3 transfected cells (block of CXCR3/IP-10 interaction)
Type: cell-based, Cyno
Conditions: IP-10 induced intracellular calcium flux; Cyno-CHO cells stably expressing recombinant CXCR3 and G-alpha-16; IP-10 at EC80; read-out: IC50
In short: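 Cyno-CHO cells stably expressing CXCR3 and G-alpha-16, loaded with Ca-4 dye in HBSS/10 mM HEPES pH 7.4 with 2 mM probenecid for 1 h at 37° C. Compound (final 10 microM) preincubated 15 min at room temperature, then IP-10 at EC80 added; calcium flux read at 480/540 nm.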

Sequence of CXCR3 (A0A2K5UV19 entry or part of it): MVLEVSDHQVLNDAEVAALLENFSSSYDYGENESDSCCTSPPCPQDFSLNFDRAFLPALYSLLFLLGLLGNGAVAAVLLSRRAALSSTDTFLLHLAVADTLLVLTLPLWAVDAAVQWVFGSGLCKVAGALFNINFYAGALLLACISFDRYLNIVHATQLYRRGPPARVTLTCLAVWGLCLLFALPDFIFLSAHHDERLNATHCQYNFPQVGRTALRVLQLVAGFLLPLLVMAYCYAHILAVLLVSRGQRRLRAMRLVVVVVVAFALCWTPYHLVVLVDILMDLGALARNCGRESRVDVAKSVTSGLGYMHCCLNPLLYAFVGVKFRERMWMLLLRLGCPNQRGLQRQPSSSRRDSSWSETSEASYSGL

Row | SMILES | IC50 [nM]
1 | COC[C@@H]1CCCN1c1ncc(-c2ccccc2N2CCN(C(=O)Cn3nc(C)cc3C)CC2)cn1 [2-(3,5-Dimethyl-pyrazol-1-yl)-1-(4-{2-[2-((S)-2-methoxymethyl-pyrrolidin-1-yl)-pyrimidin-5-yl]-phenyl}-piperazin-1-yl)-ethanone] | 12
2 | Cc1cc(C)n(CC(=O)N2CCN(c3ccccc3-c3cnc(N4CCC5CCCCC5C4)nc3)CC2)n1 (centres unmarked) [2-(3,5-Dimethyl-pyrazol-1-yl)-1-(4-{2-[2-(octahydro-isoquinolin-2-yl)-pyrimidin-5-yl]-phenyl}-piperazin-1-yl)-ethanone] | 21
3 | Cc1cc(C)n(CC(=O)N2CCN(c3ccccc3-c3cnc(Oc4cccnc4)nc3)CC2)n1 [2-(3,5-Dimethyl-pyrazol-1-yl)-1-(4-{2-[2-(pyridin-3-yloxy)-pyrimidin-5-yl]-phenyl}-piperazin-1-yl)-ethanone] | 56
4 | Cc1cc(C)n(CC(=O)N2CCN(c3ccccc3-c3cnc(N4C[C@@H]5C[C@H]4CO5)nc3)CC2)n1 [2-(3,5-Dimethyl-pyrazol-1-yl)-1-(4-{2-[(1S,4S)-2-(2-oxa-5-aza-bicyclo[2.2.1]hept-5-yl)-pyrimidin-5-yl]-phenyl}-piperazin-1-yl)-ethanone] | 14
5 | COc1cccc(-c2ccccc2N2CCN(C(=O)Cn3nc(C)cc3C)CC2)c1 [2-(3,5-Dimethyl-pyrazol-1-yl)-1-[4-(3′-methoxy-biphenyl-2-yl)-piperazin-1-yl]-ethanone] | 56
6 | Cc1ccc(-c2ccccc2N2CCN(C(=O)Cn3nc(C)cc3C)CC2)cc1 [2-(3,5-Dimethyl-pyrazol-1-yl)-1-[4-(4′-methyl-biphenyl-2-yl)-piperazin-1-yl]-ethanone] | 70
7 | Cc1cc(C)n(CC(=O)N2CCN(c3ccccc3-c3ccc4ccn(C)c4c3)CC2)n1 [2-(3,5-Dimethyl-pyrazol-1-yl)-1-{4-[2-(1-methyl-1H-indol-6-yl)-phenyl]-piperazin-1-yl}-ethanone] | 19
8 | Cc1cc(C)n(CC(=O)N2CCN(c3ccccc3-c3ccc4cc[nH]c4c3)CC2)n1 [2-(3,5-Dimethyl-pyrazol-1-yl)-1-{4-[2-(1H-indol-6-yl)-phenyl]-piperazin-1-yl}-ethanone] | 81
9 | Cc1cc(C)n(CC(=O)N2CCN(c3ccccc3-c3cnc(N4CCCOCC4)nc3)CC2)n1 [2-(3,5-Dimethyl-pyrazol-1-yl)-1-{4-[2-(2-[1,4]oxazepan-4-yl-pyrimidin-5-yl)-phenyl]-piperazin-1-yl}-ethanone] | 11
10 | Cc1cc(C)n(CC(=O)N2CCN(c3ccc(C(F)(F)F)cc3-c3cnc(S(C)(=O)=O)nc3)CC2)n1 [2-(3,5-Dimethyl-pyrazol-1-yl)-1-{4-[2-(2-methanesulfonyl-pyrimidin-5-yl)-4-trifluoromethyl-phenyl]-piperazin-1-yl}-ethanone] | 54
11 | COc1ncc(-c2cc(C(F)(F)F)ccc2N2CCN(C(=O)Cn3nc(C)cc3C)CC2)cn1 [2-(3,5-Dimethyl-pyrazol-1-yl)-1-{4-[2-(2-methoxy-pyrimidin-5-yl)-4-trifluoromethyl-phenyl]-piperazin-1-yl}-ethanone] | 8
12 | COc1ncc(-c2ccccc2N2CCN(C(=O)Cn3nc(C)cc3C)CC2)cn1 [2-(3,5-Dimethyl-pyrazol-1-yl)-1-{4-[2-(2-methoxy-pyrimidin-5-yl)-phenyl]-piperazin-1-yl}-ethanone] | 46
13 | Cc1cc(C)n(CC(=O)N2CCN(c3ccccc3-c3cnc(C)nc3)CC2)n1 [2-(3,5-Dimethyl-pyrazol-1-yl)-1-{4-[2-(2-methyl-pyrimidin-5-yl)-phenyl]-piperazin-1-yl}-ethanone] | 67
14 | CNc1ncc(-c2cc(C(F)(F)F)ccc2N2CCN(C(=O)Cn3nc(C)cc3C)CC2)cn1 [2-(3,5-Dimethyl-pyrazol-1-yl)-1-{4-[2-(2-methylamino-pyrimidin-5-yl)-4-trifluoromethyl-phenyl]-piperazin-1-yl}-ethanone] | 7
15 | CNc1ncc(-c2ccccc2N2CCN(C(=O)Cn3nc(C)cc3C)CC2)cn1 [2-(3,5-Dimethyl-pyrazol-1-yl)-1-{4-[2-(2-methylamino-pyrimidin-5-yl)-phenyl]-piperazin-1-yl}-ethanone] | 34
16 | Cc1cc(C)n(CC(=O)N2CCN(c3ccccc3-c3cnc(N4CCCCC4)nc3)CC2)n1 [2-(3,5-Dimethyl-pyrazol-1-yl)-1-{4-[2-(2-piperidin-1-yl-pyrimidin-5-yl)-phenyl]-piperazin-1-yl}-ethanone] | 7
17 | Cc1cc(C)n(CC(=O)N2CCN(c3ccccc3-c3cnc(N4CCCC4)nc3)CC2)n1 [2-(3,5-Dimethyl-pyrazol-1-yl)-1-{4-[2-(2-pyrrolidin-1-yl-pyrimidin-5-yl)-phenyl]-piperazin-1-yl}-ethanone] | 7
18 | COc1ccc(-c2ccccc2N2CCN(C(=O)Cn3nc(C)cc3C)CC2)cn1 [2-(3,5-Dimethyl-pyrazol-1-yl)-1-{4-[2-(6-methoxy-pyridin-3-yl)-phenyl]-piperazin-1-yl}-ethanone] | 58
19 | COc1ncc(-c2cc(F)ccc2N2CCN(C(=O)Cn3nc(C)cc3C)CC2)cn1 [2-(3,5-Dimethyl-pyrazol-1-yl)-1-{4-[4-fluoro-2-(2-methoxy-pyrimidin-5-yl)-phenyl]-piperazin-1-yl}-ethanone] | 14
20 | Cc1cc(C)n(CC(=O)N2CCN(c3ccc(C(F)(F)F)cc3-c3cnc(S(C)(=O)=O)nc3)CC2C)n1 (centres unmarked) [2-(3,5-dimethyl-1H-pyrazol-1-yl)-1-(2-methyl-4-{2-[2-(methylsulfonyl)pyrimidin-5-yl]-4-(trifluoromethyl)phenyl}piperazin-1-yl)ethanone] | 56
21 | Cc1cc(C)n(CC(=O)N2CCN(c3ccc(C(F)(F)F)cc3-c3cnc(N4CCC(O)CC4)nc3)CC2C)n1 (centres unmarked) [2-(3,5-dimethyl-1H-pyrazol-1-yl)-1-(4-{2-[2-(4-hydroxypiperidin-1-yl)pyrimidin-5-yl]-4-(trifluoromethyl)phenyl}-2-methylpiperazin-1-yl)ethanone] | 8
22 | Cc1cc(C)n(CC(=O)N2CCN(c3ccccc3-c3cnc(N4CCC(O)CC4)nc3)CC2C)n1 (centres unmarked) [2-(3,5-dimethyl-1H-pyrazol-1-yl)-1-(4-{2-[2-(4-hydroxypiperidin-1-yl)pyrimidin-5-yl]phenyl}-2-methylpiperazin-1-yl)ethanone] | 13

Continued, values first:

Row | IC50 [nM] | SMILES
23 | 12 | Cc1cc(C)n(CC(=O)N2CCN(c3ccccc3-c3cnc(N4CCC(C(C)(C)O)CC4)nc3)CC2)n1 [2-(3,5-Dimethyl-pyrazol-1-yl)-1-[4-(2-{2-[4-(1-hydroxy-1-methyl-ethyl)-piperidin-1-yl]-pyrimidin-5-yl}-phenyl)-piperazin-1-yl]-ethanone]
24 | 18 | CCOc1ncc(-c2ccccc2N2CCN(C(=O)Cn3nc(C)cc3C)CC2)cn1 [2-(3,5-Dimethyl-pyrazol-1-yl)-1-{4-[2-(2-ethoxy-pyrimidin-5-yl)-phenyl]-piperazin-1-yl}-ethanone]
25 | 10 | CCNc1ncc(-c2ccccc2N2CCN(C(=O)Cn3nc(C)cc3C)CC2)cn1 [2-(3,5-Dimethyl-pyrazol-1-yl)-1-{4-[2-(2-ethylamino-pyrimidin-5-yl)-phenyl]-piperazin-1-yl}-ethanone]
26 | 5 | CSc1ncc(-c2cc(C(F)(F)F)ccc2N2CCN(C(=O)Cn3nc(C)cc3C)CC2)cn1 [2-(3,5-Dimethyl-pyrazol-1-yl)-1-{4-[2-(2-methylsulfanyl-pyrimidin-5-yl)-4-trifluoromethyl-phenyl]-piperazin-1-yl}-ethanone]
27 | 10 | CSc1ncc(-c2ccccc2N2CCN(C(=O)Cn3nc(C)cc3C)CC2)cn1 [2-(3,5-Dimethyl-pyrazol-1-yl)-1-{4-[2-(2-methylsulfanyl-pyrimidin-5-yl)-phenyl]-piperazin-1-yl}-ethanone]
28 | 8 | Cc1cc(C)n(CC(=O)N2CCN(c3ccc(C(F)(F)F)cc3-c3cnc(N4CCOCC4)nc3)CC2)n1 [2-(3,5-Dimethyl-pyrazol-1-yl)-1-{4-[2-(2-morpholin-4-yl-pyrimidin-5-yl)-4-trifluoromethyl-phenyl]-piperazin-1-yl}-ethanone]
29 | 9 | Cc1cc(C)n(CC(=O)N2CCN(c3ccccc3-c3cnc(N4CCOCC4)nc3)CC2)n1 [2-(3,5-Dimethyl-pyrazol-1-yl)-1-{4-[2-(2-morpholin-4-yl-pyrimidin-5-yl)-phenyl]-piperazin-1-yl}-ethanone]
30 | 39 | Cc1cc(C)n(CC(=O)N2CCN(c3ccccc3-c3cnc(Oc4ccccc4)nc3)CC2)n1 [2-(3,5-Dimethyl-pyrazol-1-yl)-1-{4-[2-(2-phenoxy-pyrimidin-5-yl)-phenyl]-piperazin-1-yl}-ethanone]
31 | 5 | Cc1cc(C)n(CC(=O)N2CCN(c3ccc(F)cc3-c3cnc(N4CCOCC4)nc3)CC2)n1 [2-(3,5-Dimethyl-pyrazol-1-yl)-1-{4-[4-fluoro-2-(2-morpholin-4-yl-pyrimidin-5-yl)-phenyl]-piperazin-1-yl}-ethanone]
32 | 9 | Cc1cc(C)n(CC(=O)N2CCN(c3ccc(F)cc3-c3cnc(N4CCC(O)CC4)nc3)CC2)n1 [2-(3,5-dimethyl-1H-pyrazol-1-yl)-1-(4-{4-fluoro-2-[2-(4-hydroxypiperidin-1-yl)pyrimidin-5-yl]phenyl}piperazin-1-yl)ethanone]
33 | 40 | Cc1cc(C)n(CC(=O)N2CCN(c3ccc(F)cc3-c3cnc(N4CCN(C)CC4)nc3)CC2)n1 [2-(3,5-dimethyl-1H-pyrazol-1-yl)-1-(4-{4-fluoro-2-[2-(4-methylpiperazin-1-yl)pyrimidin-5-yl]phenyl}piperazin-1-yl)ethanone]
34 | 157 | Cc1cc(C)n(CC(=O)N2CCN(c3ccc(F)cc3-c3cnc(S(C)(=O)=O)nc3)CC2C)n1 (centres unmarked) [2-(3,5-dimethyl-1H-pyrazol-1-yl)-1-(4-{4-fluoro-2-[2-(methylsulfonyl)pyrimidin-5-yl]phenyl}-2-methylpiperazin-1-yl)ethanone]
35 | 278 | Cc1cc(C)n(CC(=O)N2CCN(c3ccc(F)cc3-c3cnc(S(C)(=O)=O)nc3)CC2)n1 [2-(3,5-dimethyl-1H-pyrazol-1-yl)-1-(4-{4-fluoro-2-[2-(methylsulfonyl)pyrimidin-5-yl]phenyl}piperazin-1-yl)ethanone]

Reference: patent US8450317B2, “CXCR3 receptor antagonists” (Boehringer Ingelheim International GmbH, priority 2009, dated 2013)
